This is an account of results in US7700577B2, “Carbohydrate based anti-bacterials” (Alchemia Limited, priority 2002, dated 2010).

The subject of assay [1] is Micrococcus luteus (ATCC272). The assay is described as follows: MIC testing, additional organisms: Micrococcus luteus. The assay is classed as cell-based. The settings on record: incubation at 30 degrees C. An excerpt:
(§1) The broth microdilution format of the National Committee for Clinical Laboratory Standards (NCCLS) approved standard for susceptibility tests as outlined in M7-A4 “methods for dillution Antimicrobial susceptibility tests for bacteria that grow aerobically; approved standard—fifth edition”, January 2000 was utilized for minimum inhibitory concentration testing in Mueller-Hinton broth. The broth for Streptococcus pyogenes testing was supplemented with 2% laked horse blood. A positive result in initial testing was determined by complete inhibition of macroscopic bacterial growth at a concentration of 128 micrograms per mL after incubation for 16 to 24 hours at 37 degrees C. In the case of Micrococcus luteus, incubation was at 30 degrees C.
(§2) Bacterial Types Are: • SA24 S. aureus after 24 hours exposure • SA48 S. aureus after 48 hours exposure • EC24 E. coli after 24 hours exposure
(§3) The following compounds were tested against additional organisims with the following results. • 1. Micrococcus luteus (ATCC272) • 2. Staphylococcus aureus (ATCC29213) • 3. Staphylococcus aureus (ATCC43300) MRSA • 4. Enterococcus faecalis (ATCC29212) • 5. Enterococcus faecalis (ATCCS 1299) Vancomycin resistant • 6. Streptococcus pyrogenes (ATCC8668)

Assay [2] concerns Staphylococcus aureus (ATCC43300) MRSA. The assay is described as follows: MIC testing, additional organisms: Staphylococcus aureus MRSA. The format is cell-based.
From the text: as §1, §2, §3

Assay [3] has as its system Staphylococcus aureus (ATCC29213). The assay is described as follows: MIC testing, additional organisms: Staphylococcus aureus ATCC29213. The format is cell-based.
From the text: as §1, §2, §3

The subject of a further assay is S. aureus. Description: MIC testing, broth microdilution (NCCLS), S. aureus. The format is cell-based, Staphylococcus aureus. The settings on record: for SA24 (MIC): S. aureus after 24 hours exposure; for SA48 (MIC): S. aureus after 48 hours exposure. An excerpt:
(§4) The broth microdilution format of the National Committee for Clinical Laboratory Standards (NCCLS) approved standard for susceptibility tests as outlined in M7-A4 “methods for dillution Antimicrobial susceptibility tests for bacteria that grow aerobically; approved standard—fifth edition”, January 2000 was utilized for minimum inhibitory concentration testing in Mueller-Hinton broth. The broth for Streptococcus pyogenes testing was supplemented with 2% laked horse blood. A positive result in initial testing was determined by complete inhibition of macroscopic bacterial growth at a concentration of 128 micrograms per mL after incubation for 16 to 24 hours at 37 degrees C. In the case of Micrococcus luteus, incubation was at 30 degrees C. […] Bacterial Types Are: • SA24 S. aureus after 24 hours exposure • SA48 S. aureus after 48 hours exposure • EC24 E. coli after 24 hours exposure

Assay [4] relates to Enterococcus faecalis (ATCC29212). The assay is described as follows: MIC testing, additional organisms: Enterococcus faecalis ATCC29212. The format is cell-based.
From the text: as §1, §2, §3

Another assay concerns E. coli. The assay is described as follows: MIC testing, broth microdilution (NCCLS), E. coli. The format is cell-based. To be noted: E. coli after 24 hours exposure.
From the text: as §4
For orientation: Dilution methods test growth across graded concentrations, often in twofold steps.

For assay [5], the system named is Enterococcus faecalis (ATCCS 1299) Vancomycin resistant. The assay is described as follows: MIC testing, additional organisms: Enterococcus faecalis vancomycin resistant. The format is cell-based.
From the text: as §1, §2, §3

For assay [6], the system named is Streptococcus pyrogenes (ATCC8668). The assay is described as follows: MIC testing, additional organisms: Streptococcus pyrogenes. The assay is classed as cell-based. To be noted: broth supplemented with 2% laked horse blood.
From the text: as §1, §2, §3

Turning to `CCCCCCCCCCC(=O)NC1C(CO)OCC(NC(=O)Nc2cccc(C(F)(F)F)c2)C1OC1OC(CO)C(O)C(O)C1NC(=O)Nc1cccc(C(F)(F)F)c1` (stereo not shown) [compound 77], the “MIC, organism 1” value in assay [1] is listed as “+ (+ indicates an MIC value of less than 128 micrograms per mL)”. In addition, the “MIC, organism 3” value in assay [2] is on record as “+ (+ indicates an MIC value of less than 128 micrograms per mL)”. Further, the “MIC, organism 2” value in assay [3] was “+ (+ indicates an MIC value of less than 128 micrograms per mL)”. Further, in the assay on S. aureus, the “SA24 (MIC)” value is recorded as “+ (+ indicates an MIC value of less than 128 micrograms per mL)” and the “SA48 (MIC)” value is “+ (+ indicates an MIC value of less than 128 micrograms per mL)”. The “MIC, organism 4” value in assay [4] is recorded as “+ (+ indicates an MIC value of less than 128 micrograms per mL)”. Moreover, the “EC24 (MIC)” value in the assay on E. coli was “− (− indicates an MIC of greater then 128 micrograms per mL)”. Besides, in assay [5], the “MIC, organism 5” value is recorded as “+ (+ indicates an MIC value of less than 128 micrograms per mL)”. Moreover, the “MIC, organism 6” value in assay [6] was “+ (+ indicates an MIC value of less than 128 micrograms per mL)”.
Regarding `CCCCCCCCCCN[C@H]1C(CO)OCC(NC(=O)Nc2cccc(C(F)(F)F)c2)[C@H]1O[C@@H]1OC(CO)[C@@H](O)[C@H](O)C1NC(=O)Nc1cccc(C(F)(F)F)c1` (stereo partly shown) [compound 56], the “MIC, organism 1” value in assay [1] is given as “+ (+ indicates an MIC value of less than 128 micrograms per mL)”. Besides, the “MIC, organism 3” value in assay [2] is “+ (+ indicates an MIC value of less than 128 micrograms per mL)”. The “MIC, organism 2” value in assay [3] is listed as “+ (+ indicates an MIC value of less than 128 micrograms per mL)”. In the assay with S. aureus, the “SA24 (MIC)” value was “+ (+ indicates an MIC value of less than 128 micrograms per mL)” and the “SA48 (MIC)” value was “+ (+ indicates an MIC value of less than 128 micrograms per mL)”. Moreover, in assay [4], the “MIC, organism 4” value is “+ (+ indicates an MIC value of less than 128 micrograms per mL)”. For the same molecule, the “MIC, organism 5” value in assay [5] was “+ (+ indicates an MIC value of less than 128 micrograms per mL)”. Also, the “MIC, organism 6” value in assay [6] is “+ (+ indicates an MIC value of less than 128 micrograms per mL)”.
Regarding `CCCCCC(=O)NC1C(CO)OCC(NC(=O)Nc2cccc(C(F)(F)F)c2)C1OC1OC(CO)C(O)C(O)C1NC(=O)Nc1cccc(C(F)(F)F)c1` (stereo not shown) [compound 70], in assay [1], the “MIC, organism 1” value was “+ (+ indicates an MIC value of less than 128 micrograms per mL)”. Also, in assay [2], the “MIC, organism 3” value is recorded as “− (− indicates an MIC of greater then 128 micrograms per mL)”. In assay [3], the “MIC, organism 2” value was “− (− indicates an MIC of greater then 128 micrograms per mL)”. The “SA24 (MIC)” value in the assay on S. aureus is given as “− (− indicates an MIC of greater then 128 micrograms per mL)”. For the same molecule, the “MIC, organism 4” value in assay [4] is reported as “+ (+ indicates an MIC value of less than 128 micrograms per mL)”. For the same molecule, the “MIC, organism 5” value in assay [5] is “− (− indicates an MIC of greater then 128 micrograms per mL)”. For the same molecule, in assay [6], the “MIC, organism 6” value was “+ (+ indicates an MIC value of less than 128 micrograms per mL)”.
With `O=C(Nc1cccc(C(F)(F)F)c1)NC1COC(CO)C(NC(=O)c2ccc(Oc3ccccc3)cc2)C1OC1OC(CO)C(O)C(O)C1NC(=O)Nc1cccc(C(F)(F)F)c1` (stereo not shown) [compound 73], the “MIC, organism 1” value in assay [1] is “+ (+ indicates an MIC value of less than 128 micrograms per mL)”. In assay [2], the “MIC, organism 3” value is on record as “+ (+ indicates an MIC value of less than 128 micrograms per mL)”. Moreover, the “MIC, organism 2” value in assay [3] is on record as “+ (+ indicates an MIC value of less than 128 micrograms per mL)”. The “SA24 (MIC)” value in the assay with S. aureus was “+ (+ indicates an MIC value of less than 128 micrograms per mL)”. Also, the “MIC, organism 4” value in assay [4] is recorded as “+ (+ indicates an MIC value of less than 128 micrograms per mL)”. Moreover, in assay [5], the “MIC, organism 5” value is given as “+ (+ indicates an MIC value of less than 128 micrograms per mL)”. For the same molecule, the “MIC, organism 6” value in assay [6] was “+ (+ indicates an MIC value of less than 128 micrograms per mL)”.
